Values after ≈ are worked out from the molar mass of the structure shown. Like-named read-outs stand apart in the source and are kept apart here. Peptide text beside a SMILES is read from it.
What was measured:
Assay type in all cases: cell-based
[1] = test system: E. coli Bw25113; assay: MIC, colistin-susceptible E. coli, with and without otilonium bromide; details: Escherichia coli
[2] = test system: E. coli J53; assay: Ca2+ / Mg2+ MIC-dependency in cation-supplemented MHB; details: 37° C., 16 hours
Method: For FIGS. 5c-5d, colistin-susceptible E. coli J53 is treated with colistin and colistin+Ob as indicated in MHB supplemented with different concentrations of Mg^2+ and Ca^2+ ions. The incubation is conducted at 37° C. for 16 hours.
Accordingly, it is believed that the addition of a chelant; or a chelant for divalent ions; or a divalent cation chelant, may further improve the activity of the drug formulation, method of use/treatment, disinfection composition, etc. of the present invention.

[3] = test system: E. coli (colistin-resistant); assay: MIC, colistin-resistant E. coli clinical isolates, with and without otilonium bromide; details: Escherichia coli
[4] = test system: mcr-1-bearing E. coli J53; assay: Ca2+ / Mg2+ MIC-dependency in cation-supplemented MHB; details: 37° C., 16 hours
Method: Accordingly, the effect of divalent ions on the antibacterial activity of otilonium bromide and colistin is investigated. […] For FIGS. 5a-5b, E. coli J53 expressing MCR-1 is treated with colistin and colistin+Ob as indicated in Mueller Hinton II Broth (MHB) that is cation-adjusted; i.e., supplemented with different concentrations of Mg^2+ and Ca^2+ ions). The incubation is conducted at 37° C. for 16 hours.

CCC(C)CCCC(=O)N[C@@H](CCN)C(=O)N[C@H](C(=O)N[C@@H](CCN)C(=O)N[C@H]1CCNC(=O)[C@H]([C@@H](C)O)NC(=O)[C@H](CCN)NC(=O)[C@H](CCN)NC(=O)[C@H](CC(C)C)NC(=O)[C@@H](CC(C)C)NC(=O)[C@H](CCN)NC1=O)[C@@H](C)O (stereo partly drawn) [Colistin] (HELM PEPTIDE1{[CCC(C)CCCC(=O)[*:2]].[Dab].T.[Dab].[Dab].[Dab].[dL].L.[Dab].[Dab].T}$PEPTIDE1,PEPTIDE1,5:R3-11:R2$$$V2.0)
MIC ([1]; colistin alone, read-out: Colistin MIC, Colistin): 2 µg/mL (≈ 1.73 µM)
MIC ([1]; in the presence of 10 ug/ml Ob, read-out: Colistin MIC, Colistin + 10 ug/ml Ob): 0.03 µg/mL
MIC ([1]; in the presence of 20 ug/ml Ob, read-out: Colistin MIC, Colistin + 20 ug/ml Ob): ≤ 0.015 µg/mL
effect of supplemented Ca2+ and Mg2+ on MIC [2]: increase the MIC
MIC ([3]; E. coli 5, colistin-resistant, colistin alone, read-out: Colistin MIC, Colistin): 8 µg/mL (≈ 6.92 µM)
MIC ([3]; E. coli 5, colistin-resistant, in the presence of 10 ug/ml Ob, read-out: Colistin MIC, Colistin + 10 ug/ml Ob): 4 µg/mL
MIC ([3]; E. coli 5, colistin-resistant, in the presence of 20 ug/ml Ob, read-out: Colistin MIC, Colistin + 20 ug/ml Ob): ≤ 0.25 µg/mL
MIC ([3]; E. coli 12.12.0487, colistin-resistant, colistin alone, read-out: Colistin MIC, Colistin): 8 µg/mL (≈ 6.92 µM)
MIC ([3]; E. coli 12.12.0487, colistin-resistant, in the presence of 10 ug/ml Ob, read-out: Colistin MIC, Colistin + 10 ug/ml Ob): 2 µg/mL
MIC ([3]; E. coli 12.12.0487, colistin-resistant, in the presence of 20 ug/ml Ob, read-out: Colistin MIC, Colistin + 20 ug/ml Ob): 0.5 µg/mL
MIC ([3]; E. coli 101, colistin-resistant, colistin alone, read-out: Colistin MIC, Colistin): 8 µg/mL (≈ 6.92 µM)
MIC ([3]; E. coli 101, colistin-resistant, in the presence of 10 ug/ml Ob, read-out: Colistin MIC, Colistin + 10 ug/ml Ob): 4 µg/mL
MIC ([3]; E. coli 101, colistin-resistant, in the presence of 20 ug/ml Ob, read-out: Colistin MIC, Colistin + 20 ug/ml Ob): 1 µg/mL
MIC ([3]; E. coli 119, colistin-resistant, colistin alone, read-out: Colistin MIC, Colistin): 16 µg/mL (≈ 13.8 µM)
MIC ([3]; E. coli 119, colistin-resistant, in the presence of 10 ug/ml Ob, read-out: Colistin MIC, Colistin + 10 ug/ml Ob): 4 µg/mL
MIC ([3]; E. coli 119, colistin-resistant, in the presence of 20 ug/ml Ob, read-out: Colistin MIC, Colistin + 20 ug/ml Ob): 2 µg/mL
MIC ([3]; E. coli 812, colistin-resistant, colistin alone, read-out: Colistin MIC, Colistin): 16 µg/mL (≈ 13.8 µM)
MIC ([3]; E. coli 812, colistin-resistant, in the presence of 10 ug/ml Ob, read-out: Colistin MIC, Colistin + 10 ug/ml Ob): 4 µg/mL
MIC ([3]; E. coli 812, colistin-resistant, in the presence of 20 ug/ml Ob, read-out: Colistin MIC, Colistin + 20 ug/ml Ob): 1 µg/mL
MIC ([3]; E. coli 2016.2.5 1149-1, colistin-resistant, colistin alone, read-out: Colistin MIC, Colistin): 8 µg/mL (≈ 6.92 µM)
MIC ([3]; E. coli 2016.2.5 1149-1, colistin-resistant, in the presence of 10 ug/ml Ob, read-out: Colistin MIC, Colistin + 10 ug/ml Ob): 4 µg/mL
MIC ([3]; E. coli 2016.2.5 1149-1, colistin-resistant, in the presence of 20 ug/ml Ob, read-out: Colistin MIC, Colistin + 20 ug/ml Ob): 1 µg/mL
MIC ([3]; E. coli 34650, colistin-resistant, colistin alone, read-out: Colistin MIC, Colistin): 8 µg/mL (≈ 6.92 µM)
MIC ([3]; E. coli 34650, colistin-resistant, in the presence of 10 ug/ml Ob, read-out: Colistin MIC, Colistin + 10 ug/ml Ob): 2 µg/mL
MIC ([3]; E. coli 34650, colistin-resistant, in the presence of 20 ug/ml Ob, read-out: Colistin MIC, Colistin + 20 ug/ml Ob): 0.5 µg/mL
MIC ([3]; E. coli CX48, colistin-resistant, colistin alone, read-out: Colistin MIC, Colistin): 8 µg/mL (≈ 6.92 µM)
MIC ([3]; E. coli CX48, colistin-resistant, in the presence of 10 ug/ml Ob, read-out: Colistin MIC, Colistin + 10 ug/ml Ob): 4 µg/mL
MIC ([3]; E. coli CX48, colistin-resistant, in the presence of 20 ug/ml Ob, read-out: Colistin MIC, Colistin + 20 ug/ml Ob): 1 µg/mL
MIC ([3]; E. coli CX53, colistin-resistant, colistin alone, read-out: Colistin MIC, Colistin): 8 µg/mL (≈ 6.92 µM)
MIC ([3]; E. coli CX53, colistin-resistant, in the presence of 10 ug/ml Ob, read-out: Colistin MIC, Colistin + 10 ug/ml Ob): 4 µg/mL
MIC ([3]; E. coli CX53, colistin-resistant, in the presence of 20 ug/ml Ob, read-out: Colistin MIC, Colistin + 20 ug/ml Ob): 2 µg/mL
MIC ([3]; E. coli CX116, colistin-resistant, colistin alone, read-out: Colistin MIC, Colistin): 2 µg/mL (≈ 1.73 µM)
MIC ([3]; E. coli CX116, colistin-resistant, in the presence of 10 ug/ml Ob, read-out: Colistin MIC, Colistin + 10 ug/ml Ob): ≤ 0.25 µg/mL
MIC ([3]; E. coli CX116, colistin-resistant, in the presence of 20 ug/ml Ob, read-out: Colistin MIC, Colistin + 20 ug/ml Ob): ≤ 0.25 µg/mL
MIC ([3]; E. coli WZ2431, colistin-resistant, colistin alone, read-out: Colistin MIC, Colistin): 8 µg/mL (≈ 6.92 µM)
MIC ([3]; E. coli WZ2431, colistin-resistant, in the presence of 10 ug/ml Ob, read-out: Colistin MIC, Colistin + 10 ug/ml Ob): 2 µg/mL
MIC ([3]; E. coli WZ2431, colistin-resistant, in the presence of 20 ug/ml Ob, read-out: Colistin MIC, Colistin + 20 ug/ml Ob): 0.5 µg/mL
MIC ([3]; E. coli WZ2909, colistin-resistant, colistin alone, read-out: Colistin MIC, Colistin): 16 µg/mL (≈ 13.8 µM)
MIC ([3]; E. coli WZ2909, colistin-resistant, in the presence of 10 ug/ml Ob, read-out: Colistin MIC, Colistin + 10 ug/ml Ob): 8 µg/mL
MIC ([3]; E. coli WZ2909, colistin-resistant, in the presence of 20 ug/ml Ob, read-out: Colistin MIC, Colistin + 20 ug/ml Ob): 1 µg/mL
MIC ([3]; E. coli WZ3903, colistin-resistant, colistin alone, read-out: Colistin MIC, Colistin): 4 µg/mL (≈ 3.46 µM)
MIC ([3]; E. coli WZ3903, colistin-resistant, in the presence of 10 ug/ml Ob, read-out: Colistin MIC, Colistin + 10 ug/ml Ob): ≤ 0.25 µg/mL
MIC ([3]; E. coli WZ3903, colistin-resistant, in the presence of 20 ug/ml Ob, read-out: Colistin MIC, Colistin + 20 ug/ml Ob): ≤ 0.25 µg/mL
MIC ([3]; E. coli WZ3906, colistin-resistant, colistin alone, read-out: Colistin MIC, Colistin): 8 µg/mL (≈ 6.92 µM)
MIC ([3]; E. coli WZ3906, colistin-resistant, in the presence of 10 ug/ml Ob, read-out: Colistin MIC, Colistin + 10 ug/ml Ob): 4 µg/mL
MIC ([3]; E. coli WZ3906, colistin-resistant, in the presence of 20 ug/ml Ob, read-out: Colistin MIC, Colistin + 20 ug/ml Ob): 1 µg/mL
MIC ([3]; E. coli WZ3920, colistin-resistant, colistin alone, read-out: Colistin MIC, Colistin): 4 µg/mL (≈ 3.46 µM)
MIC ([3]; E. coli WZ3920, colistin-resistant, in the presence of 10 ug/ml Ob, read-out: Colistin MIC, Colistin + 10 ug/ml Ob): 2 µg/mL
MIC ([3]; E. coli WZ3920, colistin-resistant, in the presence of 20 ug/ml Ob, read-out: Colistin MIC, Colistin + 20 ug/ml Ob): ≤ 0.25 µg/mL
MIC ([3]; E. coli WZ3951, colistin-resistant, colistin alone, read-out: Colistin MIC, Colistin): 16 µg/mL (≈ 13.8 µM)
MIC ([3]; E. coli WZ3951, colistin-resistant, in the presence of 10 ug/ml Ob, read-out: Colistin MIC, Colistin + 10 ug/ml Ob): 8 µg/mL
MIC ([3]; E. coli WZ3951, colistin-resistant, in the presence of 20 ug/ml Ob, read-out: Colistin MIC, Colistin + 20 ug/ml Ob): 2 µg/mL
MIC ([3]; E. coli WZ3955, colistin-resistant, colistin alone, read-out: Colistin MIC, Colistin): 8 µg/mL (≈ 6.92 µM)
MIC ([3]; E. coli WZ3955, colistin-resistant, in the presence of 10 ug/ml Ob, read-out: Colistin MIC, Colistin + 10 ug/ml Ob): 4 µg/mL
MIC ([3]; E. coli WZ3955, colistin-resistant, in the presence of 20 ug/ml Ob, read-out: Colistin MIC, Colistin + 20 ug/ml Ob): 1 µg/mL
MIC ([3]; E. coli X2169, colistin-resistant, colistin alone, read-out: Colistin MIC, Colistin): 16 µg/mL (≈ 13.8 µM)
MIC ([3]; E. coli X2169, colistin-resistant, in the presence of 10 ug/ml Ob, read-out: Colistin MIC, Colistin + 10 ug/ml Ob): 4 µg/mL
MIC ([3]; E. coli X2169, colistin-resistant, in the presence of 20 ug/ml Ob, read-out: Colistin MIC, Colistin + 20 ug/ml Ob): 2 µg/mL
effect of supplemented Ca2+ and Mg2+ on MIC [4]: increase the MIC

Reference: patent US12220440B2, “Drug composition, method for treating infection, disinfecting composition, and drug adjuvant” (priority 2022, dated 2025)
